The target in this test is C145A mutant of M^pro (Severe acute respiratory syndrome coronavirus 2, UniProt P0DTD1, C3408A). The test is classed as cell-based, SARS-CoV-2.

Structures are written as SMILES.

In the case of `C#CC[C@H](NC(=O)C(F)(F)F)C(=O)N1C[C@H]2[C@@H]([C@H]1C(=O)N[C@H](C#C)C[C@@H]1CCNC1=O)C2(C)C` [Alk-4d, O=C1NCC[C@H]1C[C@@H](C#C)NC([C@H]2N(C([C@@H](NC(C(F)(F)F)=O)CC#C)=O)C[C@H]3[C@@H]2C3(C)C)=O], the “labeling of C145A mutant of M^pro in cells” value was “no labeling”.
